Experiments:
[1] = Brookfield Viscosity at -25° C. (ASTM D-2983); format: physicochemical
Method: (§1) The properties listed in Tables 1 and 2 were determined as follows. Pour Point was determined using ASTM # D-97. Brookfield Viscosity at -25° C. was determined using ASTM # D-2983. Kinematic viscosity (@ 40 and 100° C.) was determined using ASTM # D-445. Viscosity index (VI) was determined using ASTM # D-2270. Biodegradation was determined using the Modified Sturm test (OECD Test No. 301B). Solubility with dispersant was determined by blending the desired ratios and looking for haze, cloudiness, two-phases, etc. Engine wear was determined using the NMMA Yamaha CE50S Lubricity test. Oxidation induction time was determined using a high pressure differential scanning calorimeter (HPDSC) having isothermal/isobaric conditions of 220° C. and 500 psi (3.445 MPa) air, respectively. Aquatic toxicity was determined using the Dispersion Aquatic Toxicity test. The acid number was determined using ASTM # D-664. The hydroxyl number of the respective samples was determined by infrared spectroscopy.

[2] = Viscosity index (ASTM D-2270); format: physicochemical
Method: as §1

[3] = Acid number (ASTM D-664); format: physicochemical
Method: as §1

[4] = Kinematic viscosity (ASTM D-445); format: physicochemical
Method: as §1

[5] = Oxidation induction time by HPDSC; format: physicochemical; details: 220° C., 500 psi air
[6] = Pour Point (ASTM D-97); format: physicochemical
Method: as §1

[7] = background; cited from earlier work

| Vis @ -25° C. [1] | Molecule | -25° C. Viscosity ([1]; Tables 2 and 4) | Viscosity Index [2] | Acid Number [3] [mgKOH/g] | Vis. @ 40° C. [4] [cSt] | Vis. @ 100° C. [4] [cSt] | Oxidation Induction Time [5] [min] | Pour Point [6] | viscosity at 40° C. [7] |
| --- | --- | --- | --- | --- | --- | --- | --- | --- | --- |
|  | triester of trimethylolpropane and isostearic acid [TMP/iC18] | 358,000 cps | 147 | 1.9 | 78.34 | 11.94 | 4.29 | -20 °C |  |
|  | CCCCCCCCCC(=O)OCC(COC(=O)CCCCCCCCC)(COC(=O)CCCCCCCCC)COC(=O)CCCCCCCCC [ester of pentaerythritol and n-C10 acid] |  |  |  |  |  |  |  | about 38.6 cSt |
| solid | CCCCCCCCCCCOC(=O)CCCCC(=O)OCCCCCCCCCCC [Di-undecyladipate] |  |  |  | 13.92 | 2.80 |  | +21 °C |  |

— US5681800A, “Biodegradable branched synthetic ester base stocks and lubricants formed therefrom” (priority 1995, dated 1997)
